Here are results for two compounds from patent US7723323B2, “Pharmaceutical use of fused 1,2,4-triazoles” (High Point Pharmaceuticals, LLC, priority 2003, dated 2010).

The assay addresses T1, h-11βHSD1 (Homo sapiens, UniProt P28845).
T1 construct: made in house; host or cells: yeast (extract of transformed yeast)
In words: 11βHSD1 enzyme assay (SPA). Type of assay: biochemical. The following applies: extract of yeast transformed with h-11βHSD1; 120 nM 3H-cortisone, 4 mM β-NADPH, 60 min at 30° C. The procedure:
^3H-cortisone and anti-rabbit Ig coated scintillation proximity assay (SPA) beads were purchased from Amersham Pharmacia Biotech, β-NADPH was from Sigma and rabbit anti-cortisol antibodies were from Fitzgerald. An extract of yeast transformed with h-11βHSD1 (Hult et al., FEBS Lett. 441, 25 (1998)) was used as the source of enzyme. The test compounds were dissolved in DMSO (10 mM). All dilutions were performed in a buffer containing 50 mM TRIS-HCl (Sigma Chemical Co), 4 mM EDTA (Sigma Chemical Co), 0.1% BSA (Sigma Chemical Co), 0.01% Tween-20 (Sigma Chemical Co) and 0.005% bacitracin (Novo Nordisk A/S), pH=7.4. Optiplate 96 wells plates were supplied by Packard. The amount of ^3H-cortisol bound to the SPA beads was measured on TopCount NXT, Packard.
h-11βHSD1, 120 nM ^3H-cortisone, 4 mM β-NADPH, antibody (1:200), serial dilutions of test compound and SPA particles (2 mg/well) were added to the wells. The reaction was initiated by mixing the different components and was allowed to proceed under shaking for 60 min at 30° C. […] Data was analysed using GraphPad Prism software.

T1 sequence (P28845 whole entry): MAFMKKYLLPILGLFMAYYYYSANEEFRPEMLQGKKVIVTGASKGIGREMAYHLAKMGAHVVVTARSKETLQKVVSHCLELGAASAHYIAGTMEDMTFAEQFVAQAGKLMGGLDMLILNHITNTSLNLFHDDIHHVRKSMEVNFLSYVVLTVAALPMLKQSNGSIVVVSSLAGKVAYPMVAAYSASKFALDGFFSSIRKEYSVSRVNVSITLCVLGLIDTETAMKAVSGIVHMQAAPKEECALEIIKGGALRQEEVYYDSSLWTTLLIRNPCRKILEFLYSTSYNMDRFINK

In general, IC50 refers to the concentration needed to halve the response being measured. A higher IC50 goes with weaker potency. Compound `c1ccc(OCc2ccccc2-c2nnc3n2CCCCC3)cc1` [Example 1-a] yielded an IC50 of 0.11 µM.
In turn, `Brc1ccccc1-c1nnc2n1CCCCC2` [Example 1, 3-(2-Bromo-phenyl)-6,7,8,9-tetrahydro-5H-[1,2,4]triazolo[4,3-a]azepine] returned an IC50 of 0.23 µM.
